In assay [1] the target is T1, ADIFAB (Rattus norvegicus, UniProt P02693).
T1 construct: acrylodan covalently attached at Lys27 (chemical label, no substitution)
T1 sequence (P02693 1-132): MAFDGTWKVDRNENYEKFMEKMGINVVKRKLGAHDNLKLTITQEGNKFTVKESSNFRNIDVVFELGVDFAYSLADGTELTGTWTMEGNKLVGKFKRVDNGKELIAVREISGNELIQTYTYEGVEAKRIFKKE
The experiment in a line: Specificity of ADIFAB: effect of potential competitor molecules on ADIFAB fluorescence and on oleic acid binding. To be noted: up to maximum concentrations: lysolecithin 100mM, sphingosine 100mM, bilirubin 50mM, leukotriene C4 32mM, 5-HETE 10mM, prostaglandin D2 5mM; from ethanol 0.1% by volume. Here is the method:
ADIFAB is highly specific for long chain FA. […] The interaction between ADIFAB and a variety of molecules that are either formed in association with FA or coexist with FA in plasma and might therefore compete with FA for binding to ADI FAB were examined. The following molecules were investigated up to the maximum concentrations indicated in parenthesis; lysolecithin (100mM), sphingosine (1 00mM), bilirubin (50mM), leukotriene C4 (32mM), (5S)-5- Hydroxy-6,8, 11,14-eicasatetaenoic acid (5-HETE) (10mM), and prostaglandin D2 (5mM). […] (Since these molecules are water insoluble they were added to ADIFAB from ethanol, at 0.1% by volume, which itself causes an Ro increase by about 12% but has no effect on the Kd for oleate binding. )

Assay [2] deals with ADIFAB (Acrylodan derivatized native rat I-FABP, Lys27) (Rattus norvegicus, UniProt P02693). The assay can be described thus: biochemical. In kind it is binding. To be noted: for Kd relative to oleate (fold greater than oleate): normalized to oleate. The protocol: In most of the studies FFA was added to ADIFAB, in a buffer (A) consisting of 10 Mm HEPES, 150 Mm NaCI, 5 mM KCI, and 1 mM NaHPO4 at pH 7.4, as the sodium salt of the fatty acid. […] FA bind to most surfaces and values of the total FA concentration ([FAT]) were corrected for FA binding to cuvette and container walls. This binding was determined using trace amounts of […] labeled FA and, separately, ADIFAB florescence to determine the degree of FA loss upon transfer from one container to another. […] To minimize FA binding to surfaces, the monomer concentrations of stock solutions of the Na salts were maintained at pH >9.0 in water, and were warmed to >37° C. just prior to use. The polyunsaturated forms of the FA are subject to oxidation and it was observed that dissociation constants for binding to ADIFAB (Kd) were considerably greater for the oxidized FA. Care was taken to reduce the exposure of the FA salts to oxygen (all handling was carried out under Argon) and to store them at -20° C.
The concentrations of FA in the aqueous phase (FFA) and FA bound to ADIFAB ([FAb ]) were determined from the ratio of fluorescence emission intensities at 432 and 505 nm (R). The values FFA and [FAb ]were related to the ratio of intensities essentially by the method of Grynkiewicz et. al. (Grynkiewicz, G., Poenie, M., & Tsien, R. Y. (1985) J. Biol. Chem. 260, 3440-3450), according to which:
[FAb ]=[ADIFABtotal ]Q(fr)/(1-fr+FRQ) FR
are the ADIFAB intensities with zero and saturating concentrations of FFA, Ro is the intensity ratio in the absence of FFA and Rmax is the value when ADIFAB is saturated.
Because of the limiting solubility of long chain FA in aqueous solution Rmax and Q cannot. in general, be determined directly. To determine Rmax and Q, ADIFAB was titrated with lauric acid (12:0) whose high CMC allowed maximum R values (~10-11) to be measured that were considerably greater than with longer chain FA. From this titration a linear correlation was found between Q and R. Using Q, R pairs predicted by this relationship, a two parameter (Kd and Rmax) least squares analysis of each FA was done using the equation for equilibrium binding;
1/[FAb ]=(Kd/[ADIFAB])/FFA+1/[ADIFAB] (3)
Optimal Q and Rmax values obtained in this analysis were in the range 17-22 and 10 and 13, respectively, with average values of 19.5 and 11.5. Final Kd values for each FA were then determined by least squares analysis of equation (3) with Q and Rmax fixed at 19.5 and 11.5, respectively.
Fluorescence measurements to monitor Acrylodan fluorescence in various solvents, to monitor adduct formation, and to obtain complete spectra were carried out using an SLM 8000C fluorometer. Measurements of the 505/432 intensity ratios (R values) used to monitor the FFA titrations of ADIFAB were done with either the SLM 8000C or a Perkin-Elmer MPF-2A fluorometer.
ADIFAB dose response to FFA and FFA aggregate formation was measured. The ratio of fluorescent intensities at emission wavelengths of 505/432 nm were measured as a function of added Na salts of several FFA. Resulting data are depicted graphically in FIGS. 6A, 6B and 6C. Conditions were similar to those used in FIG. 3 except that 100mM EGTA was used in obtaining the data depicted in FIGS. 6A and 6B, while the data depicted in FIG. 6C was obtained using 1 mM CaCl2. Measured R values were used to determine FFA and [FFAb]using equations (1) and (2). The solid curves through the data of FIGS. 6A and 6C represent best fits of equation (3) obtained using a non-linear least squares algorithm. Aggregate formation was detected by measuring 90° light scattering from FFA in the buffer of FIG. 3 containing no added calcium and titrated with the Na salts of the FFA as described above, see FIG. 6B. The smoothed curves through the data, intended to guide-the-eye, indicate that aggregate formation, as detected by a sharp increase in light scattering, is approximately coincident with the maximum R value observed in the experiment related to FIG. 6A. […]

Assay [3] can be described thus: Fluorescence response of fluorescent-FABP probes to fatty acid binding. In kind it is biochemical. From the text:
Principles and exemplary methods for constructing probes as described and defined herein and methods for determining FFA levels are described in detail below. Using these principles fourteen different fluorescent-FABP derivatives have been constructed. This has been done using 3 different native FABPs (rat intestine (I-FABP), human adipocyte (A-FABP), and human heart (H-FABP)) plus 4 site-specific mutants of two of these (I-FABP, (Thr83Cys83, Thr81Cys81, Lys27Cys27 and H-FABP, Thr27Lys27), and these proteins have been derivatized with 4 different fluorophores (acrylodan, danzyl aziridine, 4-[N-[(2-iodoacetoxy)ethyl]-N-methylamino]-7-nitrobenz-2-oxa1,3-diazole ester (IANBDE), 4-[N-[(2-iodoacetoxy)ethyl]-N-methylamino]-7-nitrobenz-2-oxa-1,3-diazole these derivatives can serve as FFA probes, to some degree. To date, however, ADIFAB remains the one that has optimal properties for current applications. Obviously, by occupying, partially, the binding site with a fluorophore, FA must compete for its site and therefore the FA binding constant for the FABP may be altered from the native protein. This is indeed the case for ADIFAB for which the Kd is about 10 fold greater than for the native protein. So long as FA can bind, however, the derivatized molecule can still function as a FFA probe and so long as the probe's dynamic range is sufficient (as it is for ADIFAB, IANBDE and IANBDA) then FFA levels over a wide range, including those that are physiologic, can be measured.
The Cys27 mutant of I-FABP (Lys27 to Cys27) with acrylodan, IANBDE and IANBDA have also been labeled using the technique described. […] This is the behavior predicted from the construction principles set forth herein, and reflects the shorter tethering arm to Cys27 as compared to Lys27 which prevents the deeper insertion into the binding site that is observed in the Lys27 derivative. […] Thus, those skilled in the art can with considerable confidence predict whether protein modifications and/or choice of label will result in a FFA responsive probe.
Site-directed mutagenesis was used to introduce a cysteine residue at positions 82 or 84, in place of the threonine residues that are normally at this position. Mutagenesis was carried out by annealing a synthetic prirner with a single mismatched base to the above derived expression vector. The primer was extended and ligated in vitro, and the resulting heteroduplex was used to transfect the host strain. The transfected host was screened for the mutated DNA by hybridization with the mutating oligonucleotide. Mutated plasmid DNA was isolated, retransformed into the host strain, and its structure confirmed by sequencing the recombinant DNA in regions defined by probes flanking the mutated region. This modified protein was expressed in the same system and purified by the same methods as for the native protein. Typical yields of purified protein were approximately 50 mg/liter cell culture. The mutated I-FABP protein was fluorescently derivatized by inserting a fluorescent group (which reacts specifically with free SH groups) at the newly created cysteine residue. The cysteine residue was inserted at positions 82 (replacing a threonine residue) and/or at residue 84 (also a threonine residue) since both these positions face outward from the FFA binding pocket but are in close proximity to the tryptophan at position 83 (about 3.5Å lateral separation along the b strand and about 10Å vertical separation between the centers of the tryptophan and fluorescent residues). […] Thus, either the direct emission of the fluorescent group and/or the rate of resonance energy transfer between Trp83 and the fluorescent group was postulated to change. In a non-limiting prior specific example, the dansyl derivative ACRYLODAN®(6-acryloly-2dimethylamenonaphthalene) was used to modify the mutated FABP and this probe was designated FAD508.
ADIFAB dose response to FFA and FFA aggregate formation was measured. […]

The mark [4] stands for this setting: FA-ADIFAB Dissociation Constants, Kd, no added calcium, FIG. 6A, buffer A pH 7.4.

Like-named read-outs stand apart in the source and are kept apart here.

In the case of `CCCCC/C=C\C/C=C\C/C=C\C=C\[C@@H](O)CCCC(=O)O` [5-HETE, (5S)-5-Hydroxy-6,8, 11,14-eicasatetaenoic acid], in assay [1], the “change in ADIFAB fluorescence by the molecule itself” value (“change in ADIFAB fluorescence” for short) is “none of these molecules, either themselves cause a change in ADIFAB fluorescence” and the “displacement of oleic acid binding to ADIFAB” value (“displacement” below) was “nor do they displace oleic acid binding to ADIFAB”.

The Kd is the free concentration of one partner at which half of the binding sites on the other are occupied at equilibrium, for simple one-to-one binding. Take `CCCCC/C=C\C/C=C\C/C=C\C/C=C\CCCC(=O)O` [ARACHIDONATE, arachidonate]: the Kd came to 1.63 ± 0.03 µM in assay [2] (setting [4]) and 1.67 µM in assay [2] (Kd in the presence of calcium, 1 mM calcium). For the same molecule, the “Kd relative to oleate (fold greater than oleate)” value in assay [2] is roughly 5.8 fold.

In the case of `CCCCC/C=C\C/C=C\CCCCCCCC(=O)O` [LINOLEATE, linoleate], in assay [2] (setting [4]), the Kd is 0.97 ± 0.02 µM. The “Kd relative to oleate (fold greater than oleate)” value in assay [2] is roughly 3.5 fold.

Turning to `CC/C=C\C/C=C\C/C=C\CCCCCCCC(=O)O` [LINOLENATE, linolenate], in assay [2], the “ADIFAB sensitivity to FFA levels (lowest detectable level)” value is listed as “about 20 nM” and the “Kd relative to oleate (fold greater than oleate)” value is recorded as roughly 8.9 fold. Besides, in assay [2] (setting [4]), the Kd was found to be 2.5 ± 0.1 µM.

For the molecule `C=CC1=C(C)/C(=C/c2[nH]c(Cc3[nH]c(/C=C4\NC(=O)C(C)=C4C=C)c(C)c3CCC(=O)O)c(CCC(=O)O)c2C)NC1=O` [bilirubin], in assay [1], the “change in ADIFAB fluorescence” value is listed as “none of these molecules, either themselves cause a change in ADIFAB fluorescence” and the “displacement” value is “nor do they displace oleic acid binding to ADIFAB”.

Take `CCCCCCCCCCCC(=O)O` [laurate]: in assay [2] (laurate (12:0), binding detectable but considerably weaker, read-out: Kd (shorter chain FA, bound)), the Kd is greater than 200 µM.

In the case of `CCCCC/C=C\C\C=C/C=C/C=C/[C@@H](SC[C@H](NC(=O)CC[C@H](N)C(=O)O)C(=O)NCC(=O)O)[C@@H](O)CCCC(=O)O` [leukotriene C4], in assay [1], the “change in ADIFAB fluorescence” value is given as “none of these molecules, either themselves cause a change in ADIFAB fluorescence” and the “displacement” value was “nor do they displace oleic acid binding to ADIFAB”.

In the case of `CCCCC[C@H](O)/C=C/[C@H]1C(=O)C[C@H](O)[C@@H]1C/C=C\CCCC(=O)O` [prostaglandin D2], in assay [1], the “change in ADIFAB fluorescence” value was “none of these molecules, either themselves cause a change in ADIFAB fluorescence” and the “displacement” value is reported as “nor do they displace oleic acid binding to ADIFAB”.

As for `CCCCCCCCCCCCC/C=C/[C@@H](O)[C@@H](N)CO` [sphingosine], in assay [1], the “change in ADIFAB fluorescence” value is reported as “none of these molecules, either themselves cause a change in ADIFAB fluorescence” and the “displacement” value was “nor do they displace oleic acid binding to ADIFAB”.

lysolecithin: in assay [1], the “change in ADIFAB fluorescence” value is given as “none of these molecules, either themselves cause a change in ADIFAB fluorescence” and the “displacement” value was “nor do they displace oleic acid binding to ADIFAB”.

B1: ADIFAB: Acrylodan derivatized recombinant native protein (I-FABP), labeled at Lys27 (conjugate, UniProt P02693 2-132, looked up)
Fatty acid-binding protein, …: AFDGTWKVDRNENYEKFMEKMGINVVKRKLGAHDNLKLTITQEGNKFTVKESSNFRNIDVVFELGVDFAYSLADGTELTGTWTMEGNKLVGKFKRVDNGKELIAVREISGNELIQTYTYEGVEAKRIFKKE
modifications: acrylodan label at Lys27
Regarding B1, the “Kd of FA relative to the native protein (fold greater)” value in assay [3] (ADIFAB versus native I-FABP) is reported as “about 10 fold”. Moreover, in assay [3] (FIG. 6A, up to), the “increase in the 505/432 emission ratio on addition of FFA” value is no more than 25 fold.

The values above are taken from patent US5470714A, “One-step free fatty acid determination method” (Lidak Pharmaceuticals, priority 1993, dated 1995).
